Data published in patent publication US11666577B2 (National Institute of Biological Sciences, Beijing, priority 2018, dated 2023).

Each compound was assayed on HT-29 cells (assay: Necroptosis assay (TNF-α/Smac mimetic/z-VAD, TSZ-induced) in HT-29 cells). Details: Homo sapiens; Series 1 (Table 1) compounds 1-146; HT-29 cells, TNF-α/Smac mimetic/z-VAD, 24 hrs, cell viability by ATP level; read-out: Series 1 compound necroptosis activity.
Type: cell-based, human
In short: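 HT-29 cells were challenged with 20 ng/ml TNF-α, 100 nM Smac mimetic and 20 mM z-VAD while compound was added at the same time (library screen at 10 mM). After 24 h, viability was read as ATP luminescence (CellTiter-Glo) and normalized to DMSO-treated cells; values are means ± SD of duplicates.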
In the case of CNc1cc(C#CCn2c(=O)n(C)c(=O)c3c2nc(S(=O)(=O)Cc2cc(OC)ccc2OC)n3C)ccn1 [Compound 127, 8-((2,5-dimethoxybenzyl)sulfonyl)-1,7-dimethyl-3-(3-(2-(methylamino)pyridin-4-yl)prop-2-yn-1-yl)-3,7-dihydro-1H-purine-2,6-dione], the EC50 is reported as 1 to 10 µM.
CNc1cc(C#CCn2c(=O)n(C)c(=O)c3c2nc([S+]([O-])Cc2cc(OC)ccc2OC)n3C)ccn1 (stereo not shown) [Compound 128, 8-((2,5-dimethoxybenzyl)sulfinyl)-1,7-dimethyl-3-(3-(2-(methylamino)pyridin-4-yl)prop-2-yn-1-yl)-3,7-dihydro-1H-purine-2,6-dione] was tested, and the EC50 was 1 to 100 µM.
With COc1ccc(OC)c(Cn2c(=O)n(C)c(=O)c3c2nc(S(=O)(=O)Cc2cc(OC)ccc2OC)n3C)c1 [Compound 129, 3-(2,5-dimethoxybenzyl)-8-(2,5-dimethoxybenzylsulfonyl)-1,7-dimethyl-1H-purine-2,6(3H,7H)-dione] the EC50 was 1 to 100 µM.
Cn1c(=O)c2c(nc(S(=O)(=O)CC3CC3)n2C)n(Cc2ccccc2F)c1=O [Compound 133, 8-((cyclopropylmethyl)sulfonyl)-3-(2-fluorobenzyl)-1,7-dimethyl-1H-purine-2,6(3H,7H)-dione] showed an EC50 of 1 to 100 µM.
With Cn1c(=O)c2c(nc(S(=O)(=O)CC3CC3)n2C)n(Cc2cccc(F)c2)c1=O [Compound 134, 8-((cyclopropylmethyl)sulfonyl)-3-(3-fluorobenzyl)-1,7-dimethyl-1H-purine-2,6(3H,7H)-dione] the EC50 was 1 to 100 µM.
With Cn1c(=O)c2c(nc(S(=O)(=O)CC3CC3)n2C)n(Cc2ccc(F)cc2)c1=O [Compound 135, 8-((cyclopropylmethyl)sulfonyl)-3-(4-fluorobenzyl)-1,7-dimethyl-1H-purine-2,6(3H,7H)-dione] the EC50 was 1 to 100 µM.
For Cn1c(=O)c2c(nc(S(=O)(=O)CC3CC3)n2C)n(Cc2ccccc2Cl)c1=O [Compound 136, 3-(2-chlorobenzyl)-8-((cyclopropylmethyl)sulfonyl)-1,7-dimethyl-1H-purine-2,6(3H,7H)-dione], the EC50 was 1 to 100 µM.
In the case of Cn1c(=O)c2c(nc(S(=O)(=O)CC3CC3)n2C)n(Cc2cccc(Cl)c2)c1=O [Compound 137, 3-(3-chlorobenzyl)-8-((cyclopropylmethyl)sulfonyl)-1,7-dimethyl-1H-purine-2,6(3H,7H)-dione], the EC50 is reported as 1 to 100 µM.
Cn1c(=O)c2c(nc(S(=O)(=O)CC3CC3)n2C)n(Cc2ccc(Cl)cc2)c1=O [Compound 138, 3-(4-chlorobenzyl)-8-((cyclopropylmethyl)sulfonyl)-1,7-dimethyl-1H-purine-2,6(3H,7H)-dione] was tested, and the EC50 was 1 to 100 µM.
Cn1c(=O)c2c(nc(S(=O)(=O)CC3CC3)n2C)n(Cc2ccccc2Br)c1=O [Compound 139, 3-(2-bromobenzyl)-8-((cyclopropylmethyl)sulfonyl)-1,7-dimethyl-1H-purine-2,6(3H,7H)-dione] gave an EC50 of 1 to 100 µM.
With Cn1c(=O)c2c(nc(S(=O)(=O)CC3CC3)n2C)n(Cc2cccc(Br)c2)c1=O [Compound 140, 3-(3-bromobenzyl)-8-((cyclopropylmethyl)sulfonyl)-1,7-dimethyl-1H-purine-2,6(3H,7H)-dione] the EC50 was 1 to 100 µM.
Work on Cn1c(=O)c2c(nc(S(=O)(=O)CC3CC3)n2C)n(Cc2ccc(Br)cc2)c1=O [Compound 141, 3-(4-bromobenzyl)-8-((cyclopropylmethyl)sulfonyl)-1,7-dimethyl-1H-purine-2,6(3H,7H)-dione] yielded an EC50 of 1 to 100 µM.

Same assay, conditions: Series 1 (Table 1) compounds 1-146; HT-29 cells, TNF-α/Smac mimetic/z-VAD, 24 hrs, cell viability by ATP level; read-out: Series 1 compound necroptosis activity
For CCNC(=O)C#CCn1c(=O)n(C)c(=O)c2c1nc(S(C)(=O)=O)n2C [Compound 132, 4-(1,7-dimethyl-8-(methylsulfonyl)-2,6-dioxo-1H-purin-3(2H,6H,7H)-yl)-N-ethylbut-2-ynamide], the EC50 was 1 to 1000 µM.
For Cn1c(=O)c2c(nc(S(=O)(=O)CC3CC3)n2C)n(Cc2ccccn2)c1=O [Compound 142, 8-((cyclopropylmethyl)sulfonyl)-1,7-dimethyl-3-(pyridin-2-ylmethyl)-1H-purine-2,6(3H,7H)-dione], the EC50 was 1 to 1000 µM.
Work on Cn1c(=O)c2c(nc(S(=O)(=O)CC3CC3)n2C)n(Cc2cccnc2)c1=O [Compound 143, 8-((cyclopropylmethyl)sulfonyl)-1,7-dimethyl-3-(pyridin-3-ylmethyl)-1H-purine-2,6(3H,7H)-dione] yielded an EC50 of 1 to 1000 µM.
Work on Cn1c(=O)c2c(nc(S(=O)(=O)CC3CC3)n2C)n(Cc2ccncc2)c1=O [Compound 144, 8-((cyclopropylmethyl)sulfonyl)-1,7-dimethyl-3-(pyridin-4-ylmethyl)-1H-purine-2,6(3H,7H)-dione] yielded an EC50 of 1 to 1000 µM.
Cc1c2c(=O)n(C)c(=O)n(C)c2nn1S(C)(=O)=O [Compound 145, 3,5,7-trimethyl-2-(methylsulfonyl)-2H-pyrazolo[3,4-d]pyrimidine-4,6(5H,7H)-dione] gave an EC50 of 1 to 1000 µM.
In the case of Cn1c(=O)c2nc(S(C)(=O)=O)n(C)c2n(C)c1=O [Compound 146, 1,3,9-trimethyl-8-(methylsulfonyl)-3,9-dihydro-1H-purine-2,6-dione], the EC50 is reported as 1 to 1000 µM.

Same assay, conditions: Series 1 (Table 1) compounds 147-176; activity extrapolated; read-out: Series 1 compound necroptosis activity (extrapolated)
Cn1c(=O)c2c(nc(S(=O)(=O)CCO)n2C)n(CC#Cc2cccc(O)c2)c1=O [Compound 147] showed an EC50 of 1 to 1000 µM.
Work on Cn1c(=O)c2c(nc3n2CCS3(=O)=O)n(CC#Cc2cccc(O)c2)c1=O [Compound 148] yielded an EC50 of 1 to 1000 µM.
Cn1c(=O)c2c(nc3n2CCCS3(=O)=O)n(CC#Cc2cccc(O)c2)c1=O [Compound 149] was tested, and the EC50 was 1 to 1000 µM.
For Cn1c(=O)c2c(nc(S(=O)(=O)CCN)n2C)n(CC#Cc2cccc(O)c2)c1=O [Compound 150], the EC50 was 1 to 1000 µM.
In the case of CNCCS(=O)(=O)c1nc2c(c(=O)n(C)c(=O)n2CC#Cc2cccc(O)c2)n1C [Compound 151], the EC50 is reported as 1 to 1000 µM.
Work on CN(C)CCS(=O)(=O)c1nc2c(c(=O)n(C)c(=O)n2CC#Cc2cccc(O)c2)n1C [Compound 152] yielded an EC50 of 1 to 1000 µM.
For Cn1c(=O)c2c(nc(S(=O)(=O)CCOCCO)n2C)n(CC#Cc2cccc(O)c2)c1=O [Compound 153], the EC50 was 1 to 1000 µM.
COCCOCCS(=O)(=O)c1nc2c(c(=O)n(C)c(=O)n2CC#Cc2cccc(O)c2)n1C [Compound 154] showed an EC50 of 1 to 1000 µM.
In the case of CCCS(=O)(=O)c1nc2c(c(=O)n(C)c(=O)n2CC#Cc2cccc(O)c2)n1C [Compound 155], the EC50 is reported as 1 to 1000 µM.
Cn1c(=O)c2c(nc(S(N)(=O)=O)n2C)n(CC#Cc2cccc(O)c2)c1=O [Compound 156] was tested, and the EC50 was 1 to 1000 µM.
CNS(=O)(=O)c1nc2c(c(=O)n(C)c(=O)n2CC#Cc2cccc(O)c2)n1C [Compound 157] gave an EC50 of 1 to 1000 µM.
CN(C)S(=O)(=O)c1nc2c(c(=O)n(C)c(=O)n2CC#Cc2cccc(O)c2)n1C [Compound 158] gave an EC50 of 1 to 1000 µM.
Compound C=CC(=O)Nc1cccc(C#CCn2c(=O)n(C)c(=O)c3c2nc(S(=O)(=O)CCO)n3C)c1 [Compound 159] has an EC50 of 1 to 1000 µM.
Compound C=CC(=O)Nc1cccc(C#CCn2c(=O)n(C)c(=O)c3c2nc(S(=O)(=O)CC2CC2)n3C)c1 [Compound 160] has an EC50 of 1 to 1000 µM.
CCCC(=O)Nc1cccc(C#CCn2c(=O)n(C)c(=O)c3c2nc(S(=O)(=O)CC2CC2)n3C)c1 [Compound 161] showed an EC50 of 1 to 1000 µM.
For CCCNc1cccc(C#CCn2c(=O)n(C)c(=O)c3c2nc(S(C)(=O)=O)n3C)c1 [Compound 162], the EC50 was 1 to 1000 µM.
Cn1c(=O)c2c(nc(S(C)(=O)=O)n2C)n(CC#Cc2ccc3cc[nH]c3c2)c1=O [Compound 163] showed an EC50 of 1 to 1000 µM.
Cn1c(=O)c2c(nc(S(=O)(=O)CCc3ccccc3)n2C)n(CC#Cc2ccc3nc[nH]c3c2)c1=O [Compound 164] showed an EC50 of 1 to 1000 µM.
Compound Cn1c(=O)c2c(nc(S(C)(=O)=O)n2C)n(CC#Cc2ccc(=O)[nH]c2)c1=O [Compound 165] has an EC50 of 1 to 1000 µM.
With Cn1c(=O)c2c(nc(S(C)(=O)=O)n2C)n(CC#Cc2cccc(NCc3ccccc3)c2)c1=O [Compound 166] the EC50 was 1 to 1000 µM.
With Cn1c(=O)c2c(nc(S(C)(=O)=O)n2C)n(CC#CC2CCCNC2)c1=O (stereo not shown) [Compound 167] the EC50 was 1 to 1000 µM.
Cn1c(=O)c2c(nc(S(C)(=O)=O)n2C)n(CC#Cc2cc(N)cc(Br)c2)c1=O [Compound 168] showed an EC50 of 1 to 1000 µM.

Same assay, conditions: Series 1 (Table 1) compounds; HT-29 cells, TNF-α/Smac mimetic/z-VAD, 24 hrs, cell viability by ATP level; read-out: Series 1 compound necroptosis activity
Work on Cn1c(=O)c2c(nc(S(=O)(=O)CC3CC3)n2C)n(CC#Cc2ccc(Br)cc2)c1=O [Compound 122, 3-(3-(4-bromophenyl)prop-2-yn-1-yl)-8-((cyclopropylmethyl)sulfonyl)-1,7-dimethyl-3,7-dihydro-1H-purine-2,6-dione] yielded an EC50 of 0.001 to 1 µM.
For Cn1c(=O)c2c(nc(S(=O)(=O)CC3CC3)n2C)n(CC#Cc2cccc(NC(=O)OC(C)(C)C)c2)c1=O [Compound 123, tert-butyl(3-(3-(8-((cyclopropylmethyl)sulfonyl)-1,7-dimethyl-2,6-dioxo-1,2,6,7-tetrahydro-3H-purin-3-yl)prop-1-yn-1-yl)phenyl)carbamate], the EC50 was 0.001 to 1 µM.
Compound Cn1c(=O)c2c(nc(S(=O)(=O)CC3CC3)n2C)n(CC#Cc2cccc(N)c2)c1=O [Compound 124, 3-(3-(3-aminophenyl)prop-2-yn-1-yl)-8-((cyclopropylmethyl)sulfonyl)-1,7-dimethyl-3,7-dihydro-1H-purine-2,6-dione] has an EC50 of 0.001 to 1 µM.
Cn1c(=O)c2c(nc(S(=O)(=O)CC3CC3)n2C)n(CC#Cc2cccc([N+](=O)[O-])c2)c1=O [Compound 125, 8-((cyclopropylmethyl)sulfonyl)-1,7-dimethyl-3-(3-(3-nitrophenyl)prop-2-yn-1-yl)-3,7-dihydro-1H-purine-2,6-dione] gave an EC50 of 0.001 to 1 µM.
Compound CNc1cc(C#CCn2c(=O)n(C)c(=O)c3c2nc(S(=O)(=O)CC2CC2)n3C)ccn1 [Compound 126, 8-((cyclopropylmethyl)sulfonyl)-1,7-dimethyl-3-(3-(2-(methylamino)pyridin-4-yl)prop-2-yn-1-yl)-3,7-dihydro-1H-purine-2,6-dione] has an EC50 of 0.001 to 1 µM.
Cn1c(=O)c2c(nc(S(C)(=O)=O)n2C)n(Cc2cccs2)c1=O [Compound 131, 1,7-dimethyl-8-(methylsulfonyl)-3-(thiophen-2-ylmethyl)-1H-purine-2,6(3H,7H)-dione] gave an EC50 of 0.001 to 1 µM.
